Reference: patent US7736624B2, “Methods and compositions for diagnostic and therapeutic targeting of COX-2” (priority 2006, dated 2010)

Key:
[1] = system: liver tumors from SW620 cells; test: In vivo imaging of nude mice with liver metastases of SW620 cells; conditions: 5 mg/kg i.p.
From the text: Nude mice with liver tumors from SW620 cells (a human colorectal adenocarcinoma cell line that expresses a low level of COX-2 and that is available from ATCC) were obtained from Dr. Ray DuBois of the Vanderbilt-Ingram Cancer Center of Vanderbilt University (Nashville, Tenn., United States of America). Mice were obtained about 8-10 weeks after metastasis of the cells from the spleen. Control mice and mice bearing and tumor metastases were anesthetized and injected intraperitoneally (i.p.) with 5 mg/kg Compound 27vv. Images of injected mice were captured by a XENOGEN® IVIS® Imaging System (Xenogen Corp., Alameda, Calif., United States of America) using a Cy5.5 filter or a DsRed filter (1 second exposure/f2/high resolution/1.5 cm depth). […] At 5 hours post-injection, mice were euthanized and liver tumors were imaged by fluorescence microscopy.

[2] = Amounts of intact compound in tumors and normal tissues by HPLC-UV/MS; type: in vivo, Nude mice
From the text: Additionally, the presence of intact Compound 27vv in tumors and normal tissues were examined by high performance liquid chromatography (HPLC) and mass spectroscopy (MS). Tumors and other tissues were collected from treated mice and immediately frozen on dry ice. Tissues were homogenized in Tris buffer (pH=7.4) and proteins precipitated with acetonitrile (ACN). Protein pellets were collected by centrifugation and dried before reconstitution in Tris buffer pH 7.4 plus 10% methanol. Proteins were purified by reverse-phase solid=phase extraction (RP-SPE) and analyzed by HPLC-UV using the conditions set forth in Table 4:
A standard curve was generated for Compound 27vv between 1 and 15 nmoles. Linear regression analysis generated an equation for the resulting line of y=311624x+85461 (R^2=0.9956). Various normal and tumor samples were then analyzed and the amounts of Compound 27vv present in the samples were determined.
The putative Compound 27vv peak in the tumor samples was collected and analyzed by LCMS in order to verify its identity.

[3] = system: HCA7 colorectal adenocarcinoma cells; test: In vivo imaging of nude mice xenografted with HCA7 cells; conditions: HCA7 subcutaneous xenograft
From the text: In parallel experiments, nude mice were xenografted with a subcutaneous injection on a lateral side of 1×10^6. HCA7 colorectal adenocarcinoma cells (Marsh et al. (1993) J Pathol 170:441-450).

With `COc1ccc2c(c1)c(CC(=O)NCCCCNC(=O)c1ccc(C(=O)[O-])c(C3=c4cc5c6c(c4Oc4c3cc3c7c4CCCN7CCC3)CCC[N+]=6CCC5)c1)c(C)n2C(=O)c1ccc(Cl)cc1` [Compound 27vv] the “in vivo fluorescence imaging” value ([1]; 30 minutes and 3-4 hours post-injection) was “liver-specific imaging”, the “fluorescence microscopy of excised liver tumors” value ([1]; 5 hours post-injection) was “strongly fluoresced” and the “intact compound in SW620 tumors” value ([2]; 5 hours post-injection, HPLC and MS) was “confirmed the presence of intact Compound 27vv”. For the same compound, the “level in normal liver tissue” value ([2]; HPLC and MS) was “below the limit of detection”, the “Amount of Compound 27vv in sample” value ([2]; Mouse 1 - giant tumor A) was 3.3 nmol and the “Compound 27vv” value ([2]; Mouse 1 - giant tumor A) was 31.1 nmol/g. The “Amount of Compound 27vv in sample” value ([2]; Mouse 1 - giant tumor B) was 1.8 nmol, the “Compound 27vv” value ([2]; Mouse 1 - giant tumor B) was 15.3 nmol/g and the “Amount of Compound 27vv in sample” value ([2]; Mouse 1 - giant tumor C) was 4.7 nmol. For the same compound, the “Compound 27vv” value ([2]; Mouse 1 - giant tumor C) was 41.1 nmol/g, the “Amount of Compound 27vv in sample” value ([2]; Mouse 1 - giant tumor D) was 0.2 nmol and the “Compound 27vv” value ([2]; Mouse 1 - giant tumor D) was 0.9 nmol/g. The “Compound 27vv nmol/g” value ([2]; Mouse 2 - normal liver lobe) was “<Std. A”, the “Compound 27vv nmol/g” value ([2]; Mouse 2 - small tumor) was “<Std. A” and the “Compound 27vv nmol/g” value ([2]; Mouse 2 - tissue between the lobes) was “<Std. A”. The “tumor fluorescence in vivo and after removal of tumor masses” value [3] was “strong tumor-specific fluorescence”.
